What was measured:
Test in all cases: relative viability (nuclei count vs DMSO), 5 days (fraction); higher = more cells survive
[1] = compound: CCOC(=O)CCNc1cc(N2CCc3ccccc3CC2)nc(-c2ccccn2)n1 [GSK-J4] + Cc1nc(Nc2ncc(C(=O)Nc3c(C)cccc3Cl)s2)cc(N2CCN(CCO)CC2)n1 [Dasatinib] (partner 0.075 µM)
Summary of the method: (§1)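 Values are medians from duplicate plates. Each reflects relative viability, defined as the nuclei count of treated wells over that of vehicle wells. Lung cancer cell lines in 1536-well plates were pin-tool dosed one day after seeding with one drug alone or with a fixed anchor-drug dose plus five library-drug doses (not always all listed) in √10 steps, then fixed, stained and imaged at 4× after 5 days.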

[2] = compound: CN1CCC(CC1)OC2=CC(=C(C=C2)NC3=NC=C4C(=N3)N(C(=O)N4C)C5CCCC5)OC [AZ3146] + CS(=O)(=O)N1CCN(Cc2cc3nc(-c4cccc5[nH]ncc45)nc(N4CCOCC4)c3s2)CC1 [Pictilisib] (partner 1 µM)
Summary of the method: as §1

[3] = compound: CN1CCC(CC1)OC2=CC(=C(C=C2)NC3=NC=C4C(=N3)N(C(=O)N4C)C5CCCC5)OC [AZ3146] + CC(=O)Nc1cccc(-n2c(=O)n(C3CC3)c(=O)c3c(Nc4ccc(I)cc4F)n(C)c(=O)c(C)c32)c1 [Trametinib] (partner 0.02 µM)
Summary of the method: as §1

[4] = compound: CN1CCC(CC1)OC2=CC(=C(C=C2)NC3=NC=C4C(=N3)N(C(=O)N4C)C5CCCC5)OC [AZ3146] + COc1cc2c(Oc3ccc(NC(=O)C4(C(=O)Nc5ccc(F)cc5)CC4)cc3F)ccnc2cc1OCCCN1CCOCC1 [Foretinib] (partner 0.25 µM)
Summary of the method: as §1

| Cell Line | relative viability ([1]; first compound 0.5 µM) | relative viability ([1]; first compound 1.581 µM) | relative viability ([1]; first compound 5 µM) | relative viability ([1]; first compound 15.81 µM) | relative viability ([1]; first compound 50 µM) | relative viability ([2]; first compound 0.8 µM) | relative viability ([2]; first compound 2.53 µM) | relative viability ([2]; first compound 8 µM) | relative viability ([3]; first compound 0.08 µM) | relative viability ([3]; first compound 0.253 µM) | relative viability ([3]; first compound 0.8 µM) | relative viability ([3]; first compound 2.53 µM) | relative viability ([3]; first compound 8 µM) | relative viability ([4]; first compound 0.08 µM) | relative viability ([4]; first compound 0.253 µM) | relative viability ([4]; first compound 0.8 µM) | relative viability ([4]; first compound 2.53 µM) | relative viability ([4]; first compound 8 µM) | relative viability ([2]; first compound 0.253 µM) | relative viability ([2]; first compound 0.08 µM) |
| --- | --- | --- | --- | --- | --- | --- | --- | --- | --- | --- | --- | --- | --- | --- | --- | --- | --- | --- | --- | --- |
| LCLC-97TM1 | 0.596 | 0.724 | 0.951 | 0.825 | 0.555 | 0.18 | 0.227 | 0.181 | 0.268 | 0.2 | 0.157 | 0.184 | 0.223 | 0.936 | 0.96 | 0.879 | 0.942 | 0.806 |  |  |
| BEN | 0.398 | 0.362 |  | 0.304 | 0.284 | 0.403 | 0.533 | 0.573 |  | 1 | 1.05 | 0.971 | 1.04 |  | 0.447 | 0.587 | 0.715 | 0.698 | 0.51 |  |
| COR-L23 | 0.477 | 0.393 |  | 0.409 | 0.413 | 0.824 | 0.77 | 0.667 | 0.587 | 0.646 | 0.56 | 0.718 | 0.6 | 0.979 | 1.08 | 0.877 | 0.987 | 0.787 | 0.922 | 0.643 |
| NCI-H2009 | 0.298 | 0.276 | 0.166 | 0.265 | 0.189 | 0.886 | 0.917 | 0.605 | 0.286 | 0.301 | 0.271 | 0.273 | 0.238 | 1.11 | 1.28 | 1.26 | 1.22 | 0.957 | 0.962 | 0.891 |
| ChaGo-K-1 | 0.618 | 0.501 | 0.461 | 0.592 | 0.518 | 0.645 | 0.824 | 0.596 | 0.826 | 0.895 | 0.836 | 0.892 | 0.957 | 0.93 | 0.823 | 0.872 | 0.923 | 0.816 | 0.668 | 0.746 |
| NCI-H2023 | 0.49 |  | 0.529 | 0.48 | 0.428 | 0.19 | 0.265 | 0.202 | 0.55 | 0.473 | 0.616 | 0.538 | 0.442 | 0.783 | 0.788 | 0.774 | 0.949 | 0.227 | 0.285 | 0.241 |
| NCI-H2405 | 0.231 | 0.327 |  | 0.212 | 0.186 | 0.418 | 0.451 | 0.58 | 0.731 | 0.537 | 0.666 | 0.663 | 0.676 | 1.02 | 1.03 | 1.13 | 1.1 | 1.09 |  | 0.533 |
| EPLC-272H | 0.418 | 0.327 | 0.262 | 0.357 | 0.282 | 0.3 | 0.263 | 0.265 | 0.312 | 0.281 | 0.272 | 0.268 | 0.247 |  | 0.784 | 0.629 | 0.732 | 0.721 | 0.322 | 0.274 |
| NCI-H322M | 0.269 | 0.19 | 0.237 | 0.23 | 0.278 | 0.439 | 0.491 | 0.512 | 0.555 | 0.45 | 0.435 | 0.537 | 0.527 | 0.893 | 0.943 | 0.837 | 0.738 | 0.642 | 0.478 | 0.585 |
| SK-MES-1 | 0.392 | 0.348 | 0.334 | 0.24 | 0.358 | 0.388 | 0.371 | 0.373 | 0.549 | 0.579 | 0.585 | 0.555 | 0.544 | 0.979 | 0.832 | 0.974 | 1 | 0.957 | 0.376 | 0.349 |
| NCI-H2170 | 0.542 | 0.744 | 0.643 | 0.475 | 0.536 | 0.327 | 0.297 | 0.243 | 0.888 | 1.04 | 0.861 | 0.928 | 0.859 | 1.09 | 0.974 | 0.983 | 1.04 | 1.03 | 0.315 | 0.297 |
| H3255 | 0.361 | 0.364 | 0.416 | 0.369 | 0.386 | 0.466 | 0.507 | 0.518 | 0.649 | 0.57 | 0.555 | 0.614 | 0.544 | 0.773 | 0.764 | 0.927 | 1.04 | 0.922 | 0.49 | 0.514 |
| EKVX | 0.535 |  | 0.569 |  | 0.43 | 0.259 | 0.407 | 0.545 | 0.331 | 0.305 | 0.202 | 0.345 | 0.332 | 0.798 | 0.753 | 0.735 | 0.869 | 0.788 | 0.433 | 0.417 |
| NCI-H1993 | 0.613 | 0.649 | 0.716 | 0.52 | 0.43 | 0.788 | 0.839 | 0.762 | 0.562 | 0.508 | 0.472 | 0.519 | 0.469 | 0.866 | 0.776 | 0.771 | 0.834 | 0.834 | 0.797 | 0.806 |
| NCI-H650 | 0.512 | 0.507 | 0.277 | 0.406 | 0.324 | 0.634 | 0.905 | 1.01 | 0.899 | 0.959 | 0.959 | 0.994 | 1.09 | 0.812 | 0.996 | 0.961 | 1.03 | 1.18 | 0.837 | 0.661 |

From the supplement of paper PMC10307832
